{"source": "patent US9968649B2", "about": "“Vasopressin formulations for use in treatment of hypotension” (Par Pharmaceutical, Inc., priority 2015, dated 2018)", "key": {"spermatozoa": {"system": "spermatozoa", "conditions": "mice; cited from earlier work"}, "[1]": {"system": "septic shock and post-cardiotomy vasodilatory shock", "conditions": "seven studies in septic shock and eight studies in post-cardiotomy vasodilatory shock; cited from earlier work"}, "bacterial": {"system": "bacterial", "assay": "In vitro bacterial mutagenicity (Ames) test"}, "[2]": {"conditions": "cited from earlier work"}, "[3]": {"assay": "Chlorobutanol content of stored samples (Example 8)", "type": "physicochemical", "conditions": "inverted", "method": "Experiments were also conducted on the same samples above over the course of the experiments to measure the amount of individual impurities in the samples, pH of the samples, chlorobutanol content, particulate matter, antimicrobial effectiveness, and bacterial endotoxin levels (TABLES 25-42). (NR=no reading; ND=not determined; UI=unidentified impurity)."}, "[4]": {"assay": "Investigation of pH: vasopressin stability by HPLC after 60° C. for one week (Example 2)", "type": "physicochemical", "conditions": "10 mM citrate buffer in isotonic saline", "method": "To determine a possible pH for a vasopressin formulation with good shelf life, vasopressin formulations were prepared in 10 mM citrate buffer diluted in isotonic saline across a range of pH. Stability was assessed via HPLC as in EXAMPLE 1 after incubation of the formulations at 60° C. for one week. FIG. 9 illustrates the results of the experiment. […] At pH 3.5, the percent label claim (% LC) of vasopressin was highest, and the proportion of total impurities was lowest."}, "[5]": {"assay": "Effect of pH 3.5-4.5 on vasopressin formulations, four weeks at 25° C. or 40° C. (Example 9)", "type": "physicochemical", "method": "To test of effect of pH on vasopressin formulations, solutions containing 20 units/mL vasopressin, adjusted to pH 3.5, 3.6, 3.7, 3.8, 3.9, 4, 4.1, 4.2, 4.3, 4.4, or 4.5 with 10 mM acetate buffer, were prepared. One mL of each of the vasopressin formulations was then filled into 10 cc vials.\nThe vasopressin formulations were stored for four weeks at: (i) 25° C.; or (ii) 40° C., and the assay (% label claim; vasopressin remaining) and % total impurities after four weeks were measured using the methods described in EXAMPLE 1. FIGS. 11 and 12 below display the results of the experiments at 25° C. The results of the experiments at 40° C. are included in FIGS. 13 and 14."}}, "note": "“And” between values parts separate entries of the source, which are not always exact repeats. Equal entries are not always repeated."}
{"smiles": "NC(=O)CC[C@@H]1NC(=O)[C@H](Cc2ccccc2)NC(=O)[C@H](Cc2ccc(O)cc2)NC(=O)[C@@H](N)CSSC[C@@H](C(=O)N2CCC[C@H]2C(=O)N[C@@H](CCCN=C(N)N)C(=O)NCC(N)=O)NC(=O)[C@H](CC(N)=O)NC1=O", "note": "[Vasopressin, Cyclo (1-6) L-Cysteinyl-L-Tyrosyl-L-Phenylalanyl-L-Glutaminyl-L-Asparaginyl-L-Cysteinyl-L-Prolyl-L-Arginyl-L-Glycinamide]", "values": [{"measurement": "effect on spermatozoa", "setting": "spermatozoa", "value": "can have an effect on function and fertilizing ability of spermatozoa"}, {"measurement": "systolic and mean blood pressure following administration", "setting": "[1]", "value": "Increases in systolic and mean blood pressure"}, {"measurement": "bacterial mutagenicity (Ames) test result", "setting": "bacterial", "value": "negative"}, {"measurement": "dose excreted unchanged in urine", "setting": "[2]; human, in vivo", "value": "about 6%"}, {"measurement": "apparent half-life", "setting": "[2]; infusion rates 0.01-0.1 units/minute", "value": "≤ 10", "unit": "min"}, {"measurement": "Chlorobutanol", "setting": "[3]; 5° C., 1 month", "value": "0.49% w/v and 0.48% w/v"}, {"measurement": "Chlorobutanol", "setting": "[3]; 5° C., 2 months", "value": "0.48% w/v and 0.47% w/v"}, {"measurement": "Chlorobutanol", "setting": "[3]; 5° C., 3 months", "value": "0.48% w/v and 0.47% w/v"}, {"measurement": "Chlorobutanol", "setting": "[3]; 5° C., 6 months", "value": "0.47% w/v and 0.48% w/v"}, {"measurement": "Chlorobutanol", "setting": "[3]; 5° C., 9 months", "value": "0.48% w/v and 0.47% w/v"}, {"measurement": "Chlorobutanol", "setting": "[3]; 5° C., 12 months", "value": "0.48% w/v and 0.49% w/v"}, {"measurement": "Chlorobutanol", "setting": "[3]; 5° C., 18 months", "value": "0.49% w/v and 0.48% w/v"}, {"measurement": "Chlorobutanol", "setting": "[3]; 5° C., 24 months", "value": "0.49% w/v and 0.48% w/v"}, {"measurement": "Chlorobutanol", "setting": "[3]; 5° C., Initial", "value": "0.48% w/v and 0.47% w/v"}, {"measurement": "Chlorobutanol", "setting": "[3]; 40° C., 1 month", "value": 0.48, "unit": "% w/v"}, {"measurement": "Chlorobutanol", "setting": "[3]; 40° C., 2 months", "value": 0.50, "unit": "% w/v"}, {"measurement": "Chlorobutanol", "setting": "[3]; 40° C., 3 months", "value": 0.47, "unit": "% w/v"}, {"measurement": "Chlorobutanol", "setting": "[3]; 40° C., Initial", "value": 0.49, "unit": "% w/v"}, {"measurement": "pH at which the greatest level of stability was observed (highest % LC, lowest total impurities)", "setting": "[4]", "value": 3.5}, {"measurement": "pH providing the highest stability", "setting": "[5]; 25° C.", "value": 3.7}, {"measurement": "pH with lowest level of impurities within pH 3.6 to 3.8", "setting": "[5]; 25° C.", "value": 3.8}, {"measurement": "pH providing the highest stability", "setting": "[5]; 40° C.", "value": 3.6}, {"measurement": "pH with lowest level of impurities within pH 3.6 to 3.8", "setting": "[5]; 40° C.", "value": 3.8}]}
